Test results: ChEMBL document CHEMBL1201862, “PubChem BioAssay data set” (2004)
Structures can show the parent of a compound that is named as a salt.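 Following 48 hours of exposure in 96-well plates, responses at five concentrations were used to interpolate endpoints linearly. Here, GI50 denotes the concentration required for 50% inhibition of growth.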 Activity calls are given as the source filed them. Cut-off read from the data, not from the text of the source: active = GI50 up to about 1.1 µM and inactive = higher.

Key:
Experiment in all cases: growth of human tumour cells (NCI), 48 h
[1] = test system: CAKI-1
[2] = test system: UACC-257
[3] = test system: UO-31
[4] = test system: Hs-578T
[5] = test system: SR
[6] = test system: OVCAR-8
[7] = test system: MDA-MB-231
[8] = test system: SK-MEL-28
[9] = test system: LOX IMVI
[10] = test system: UACC-62
[11] = test system: COLO 205
[12] = test system: OVCAR-4
[13] = test system: A498
[14] = test system: ACHN
[15] = test system: MDA-N
[16] = test system: RPMI-8226
[17] = test system: SW-620
[18] = test system: HL-60
[19] = test system: HCC 2998
[20] = test system: NCI-H23

| Compound | GI50 [1] | GI50 [2] | GI50 [3] | GI50 [4] | GI50 [5] | GI50 [6] | GI50 [7] | GI50 [8] | GI50 [9] | GI50 [10] | GI50 [11] | GI50 [12] | GI50 [13] | GI50 [14] | GI50 [15] | GI50 [16] | GI50 [17] | GI50 [18] | GI50 [19] | GI50 [20] |
| --- | --- | --- | --- | --- | --- | --- | --- | --- | --- | --- | --- | --- | --- | --- | --- | --- | --- | --- | --- | --- |
| NCCCN1CCN(c2ccccc2)CC1 | > 100 µM (inactive) | > 100 µM (inactive) | > 100 µM (inactive) | > 100 µM (inactive) | 34.3 µM (inactive) | > 100 µM (inactive) | > 100 µM (inactive) | > 100 µM (inactive) | > 100 µM (inactive) | 70 µM (inactive) | 78.7 µM (inactive) | > 100 µM (inactive) | > 100 µM (inactive) | > 100 µM (inactive) | > 100 µM (inactive) | > 100 µM (inactive) |  |  |  |  |
| CCc1cn(C2CC(CO)C(CO)S2)c(=O)[nH]c1=O (stereo unspecified) | > 100 µM (inactive) | > 100 µM (inactive) | > 100 µM (inactive) | > 100 µM (inactive) |  | > 100 µM (inactive) | > 100 µM (inactive) | > 100 µM (inactive) | > 100 µM (inactive) | > 100 µM (inactive) | > 100 µM (inactive) | > 100 µM (inactive) | > 100 µM (inactive) | > 100 µM (inactive) | > 100 µM (inactive) | > 100 µM (inactive) | > 100 µM (inactive) | > 100 µM (inactive) | > 100 µM (inactive) | > 100 µM (inactive) |
| CC(C)(C)N1CSC(=S)N(Cc2ccco2)C1 | 2.83 µM (inactive) | 10.3 µM (inactive) | 2.38 µM (inactive) | 4.78 µM (inactive) | 0.555 µM (active) | 2.12 µM (inactive) |  | 2.4 µM (inactive) | 3.05 µM (inactive) | 7.05 µM (inactive) | 3.65 µM (inactive) | 12.1 µM (inactive) | 13.3 µM (inactive) | 3.27 µM (inactive) | 2.85 µM (inactive) | 0.177 µM (active) | 1.21 µM (inactive) | 1.53 µM (inactive) | 4.02 µM (inactive) | 2.37 µM (inactive) |
| CCOC(=O)/C(C(=O)Nc1ccc(F)cc1)=C(/N)N1CCOCC1 | > 100 µM (inactive) | > 100 µM (inactive) |  | > 100 µM (inactive) |  | > 100 µM (inactive) | > 100 µM (inactive) | > 100 µM (inactive) | > 100 µM (inactive) | > 100 µM (inactive) | > 100 µM (inactive) | > 100 µM (inactive) | > 100 µM (inactive) | > 100 µM (inactive) | > 100 µM (inactive) | > 100 µM (inactive) | > 100 µM (inactive) | > 100 µM (inactive) | > 100 µM (inactive) | > 100 µM (inactive) |
| FC(F)(F)c1ccc2nc(Sc3ccc4ccccc4c3)cnc2c1 | 50.2 µM (inactive) | 43.8 µM (inactive) | > 100 µM (inactive) | > 100 µM (inactive) |  | > 100 µM (inactive) | 62.7 µM (inactive) | > 100 µM (inactive) | 44.1 µM (inactive) | 64.9 µM (inactive) | 75 µM (inactive) | 51.5 µM (inactive) | 28.6 µM (inactive) | > 100 µM (inactive) | 38.5 µM (inactive) |  | 77.4 µM (inactive) | 31.6 µM (inactive) | 52 µM (inactive) | 41.9 µM (inactive) |
| c1ccc(C(CCN2CC3CCC(CC3)C2)c2ccccc2)cc1 | 37.9 µM (inactive) | 16.2 µM (inactive) | 14.9 µM (inactive) | 24 µM (inactive) | 19.7 µM (inactive) | 28.6 µM (inactive) | 18.9 µM (inactive) | 41.1 µM (inactive) | 16.9 µM (inactive) | 17.1 µM (inactive) | 12.6 µM (inactive) | 38.7 µM (inactive) | 15.6 µM (inactive) | 22.8 µM (inactive) | 23 µM (inactive) | 16.8 µM (inactive) | 29.9 µM (inactive) |  |  | 18 µM (inactive) |
| COC1(OC)C[C@H](C)[C@@]23O[C@]24c2cc(O)c5c(c2N[C@H]3C#C/C=C\C#C[C@]14O)C(=O)c1ccccc1C5=O | 0.005 µM (active) | 0.005 µM (active) | 0.005 µM (active) | 0.0705 µM (active) |  | 0.005 µM (active) | 0.0142 µM (active) | 0.00775 µM (active) | 0.005 µM (active) | 0.005 µM (active) | 0.005 µM (active) | 0.0964 µM (active) | 0.00119 µM (active) |  | 0.00597 µM (active) | 0.005 µM (active) | 0.005 µM (active) |  | 0.00805 µM (active) | 0.005 µM (active) |
| CCOC(=O)c1sc2nc(SC)nc3c2c1NCN3c1ccccc1Cl | 50.8 µM (inactive) | 48.8 µM (inactive) | 70.5 µM (inactive) | 35.4 µM (inactive) |  | 31.7 µM (inactive) | 76.4 µM (inactive) | 55.2 µM (inactive) | 35.6 µM (inactive) | 37.4 µM (inactive) | > 100 µM (inactive) | 38.5 µM (inactive) | 37.8 µM (inactive) | 55.1 µM (inactive) | 71.4 µM (inactive) | > 100 µM (inactive) | 80.2 µM (inactive) |  | 56.5 µM (inactive) | 42.2 µM (inactive) |
| COc1ccc2c(c1)CC[C@@H]1[C@@H]2CC[C@]2(C)C(=O)/C(=C/c3ccc(C#N)cc3)C[C@@H]12 | > 100 µM (inactive) | > 100 µM (inactive) | > 100 µM (inactive) |  | > 100 µM (inactive) | > 100 µM (inactive) | > 100 µM (inactive) | > 100 µM (inactive) | > 100 µM (inactive) | > 100 µM (inactive) | > 100 µM (inactive) | 77.1 µM (inactive) | > 100 µM (inactive) | > 100 µM (inactive) | > 100 µM (inactive) | > 100 µM (inactive) | > 100 µM (inactive) |  | > 100 µM (inactive) | > 100 µM (inactive) |
| O=[N+]([O-])c1ccc(/C=N/n2c(CO)nc3ccccc32)o1 | 9.68 µM (inactive) | 2.44 µM (inactive) | 8.32 µM (inactive) | 12.7 µM (inactive) |  | 10.3 µM (inactive) | 5.36 µM (inactive) | 3.52 µM (inactive) | 2.92 µM (inactive) | 7.52 µM (inactive) | 3.1 µM (inactive) | 7.1 µM (inactive) | 17.9 µM (inactive) | 4.25 µM (inactive) | 3.33 µM (inactive) | 3.43 µM (inactive) | 5.71 µM (inactive) | 2.3 µM (inactive) |  | 5.42 µM (inactive) |
| OC(C/C=N/Nc1ccccc1)(C(F)(F)Cl)C(F)(F)Cl | 7.43 µM (inactive) | > 10 µM (inactive) | 9.98 µM (inactive) | 4.66 µM (inactive) |  | > 10 µM (inactive) | 4 µM (inactive) | > 10 µM (inactive) | > 10 µM (inactive) | > 10 µM (inactive) | > 10 µM (inactive) | > 10 µM (inactive) | > 10 µM (inactive) | 4.49 µM (inactive) | > 10 µM (inactive) |  | > 10 µM (inactive) | > 10 µM (inactive) | 4.12 µM (inactive) | 7.23 µM (inactive) |
| NC1=CN(CCCO)C2=N/C(=C\c3ccccc3)C(=O)N12 | > 100 µM (inactive) | > 100 µM (inactive) | > 100 µM (inactive) | 86.3 µM (inactive) |  | > 100 µM (inactive) | > 100 µM (inactive) | > 100 µM (inactive) | > 100 µM (inactive) | > 100 µM (inactive) | > 100 µM (inactive) | > 100 µM (inactive) | 85.7 µM (inactive) | > 100 µM (inactive) | > 100 µM (inactive) | 83.4 µM (inactive) | > 100 µM (inactive) | 42.9 µM (inactive) | > 100 µM (inactive) | > 100 µM (inactive) |
| Nc1ccc(-c2nc3cc(F)ccc3s2)cc1I | 15.6 µM (inactive) | 49.3 µM (inactive) | 16.1 µM (inactive) | 25.2 µM (inactive) |  | 19.1 µM (inactive) | 13.6 µM (inactive) | 52.7 µM (inactive) | 39.5 µM (inactive) | 19.6 µM (inactive) | 2.45 µM (inactive) | 0.0782 µM (active) | 15.8 µM (inactive) | 5.36 µM (inactive) | > 100 µM (inactive) | > 100 µM (inactive) | 27.5 µM (inactive) | > 100 µM (inactive) | < 0.01 µM (active) | 0.445 µM (active) |
| Nc1nc(N)c2nc(CNc3ccc(C(=O)NC(CCCCNC(=O)c4ccccc4C(=O)O)C(=O)O)cc3)cnc2n1 (stereo unspecified) | 0.01 µM (active) |  | 0.00776 µM (active) | > 100 µM (inactive) | 0.01 µM (active) | 0.01 µM (active) |  | < 0.0275 µM (active) | 0.01 µM (active) | 0.01 µM (active) | 0.01 µM (active) | > 100 µM (inactive) | 0.0738 µM (active) | 0.01 µM (active) | 0.01 µM (active) | 0.01 µM (active) | 0.01 µM (active) |  | 0.01 µM (active) | 0.0143 µM (active) |
| OC(CNc1ccccn1)c1ccccc1 (stereo unspecified) [PHENYRAMIDOL HYDROCHLORIDE] | > 100 µM (inactive) | > 100 µM (inactive) | > 100 µM (inactive) | > 100 µM (inactive) |  | > 100 µM (inactive) | > 100 µM (inactive) | > 100 µM (inactive) | > 100 µM (inactive) | > 100 µM (inactive) | > 100 µM (inactive) | > 100 µM (inactive) | > 100 µM (inactive) | > 100 µM (inactive) | > 100 µM (inactive) | 90.2 µM (inactive) | > 100 µM (inactive) | > 100 µM (inactive) | > 100 µM (inactive) | > 100 µM (inactive) |
